± gives the standard deviation of the averaged measurements.
What was measured:
Conditions in all cases: 72 h
Caco-2 [1] = test: cell viability relative to DMSO; higher = less toxic
Calu-3 [2] = test: as above
HepG2 [3] = test: as above
U2OS [4] = test: as above
Vero E6 [5] = test: as above
Caco-2 [6] = test: relative viability EC50 (midpoint between 100% and the lowest measured viability); higher = less toxic
Calu-3 [7] = test: as above
HepG2 [8] = test: as above
U2OS [9] = test: as above
Vero E6 [10] = test: as above
Caco-2 [11] = test: drug sensitivity score (DSS) for viability; higher = more toxic; extreme values may be limits of the assay
Calu-3 [12] = test: as above
HepG2 [13] = test: as above
U2OS [14] = test: as above
Vero E6 [15] = test: as above

C[n+]1cccc(C(=O)[O-])c1 [trigonelline]
cell viability (Caco-2 [1]; 1 nM): 96.8% | cell viability (Caco-2 [1]; 10 nM): 83.1% | cell viability (Caco-2 [1]; 100 nM): 92.9% | cell viability (Caco-2 [1]; 1000 nM): 94% | cell viability (Caco-2 [1]; 10000 nM): 99.3% | cell viability (Calu-3 [2]; 1 nM): 102% | cell viability (Calu-3 [2]; 10 nM): 103% | cell viability (Calu-3 [2]; 100 nM): 105% | cell viability (Calu-3 [2]; 1000 nM): 103% | cell viability (Calu-3 [2]; 10000 nM): 95.7% | cell viability (HepG2 [3]; 1 nM): 89.2% | cell viability (HepG2 [3]; 10 nM): 95.9% | cell viability (HepG2 [3]; 100 nM): 91.8% | cell viability (HepG2 [3]; 1000 nM): 82.9% | cell viability (HepG2 [3]; 10000 nM): 90.5% | cell viability (U2OS [4]; 1 nM): 104% | cell viability (U2OS [4]; 10 nM): 95.5% | cell viability (U2OS [4]; 100 nM): 96.5% | cell viability (U2OS [4]; 1000 nM): 101% | cell viability (U2OS [4]; 10000 nM): 97.4% | cell viability (Vero E6 [5]; 1 nM): 99.6% | cell viability (Vero E6 [5]; 10 nM): 82.5% | cell viability (Vero E6 [5]; 100 nM): 106% | cell viability (Vero E6 [5]; 1000 nM): 102% | cell viability (Vero E6 [5]; 10000 nM): 76.6% | relative viability EC50 (Caco-2 [6]): > 10 µM | relative viability EC50 (Calu-3 [7]): > 10 µM | relative viability EC50 (HepG2 [8]): > 10 µM | relative viability EC50 (U2OS [9]): > 10 µM | relative viability EC50 (Vero E6 [10]): > 10 µM | drug sensitivity score (Caco-2 [11]): 0 | drug sensitivity score (Calu-3 [12]): 0 | drug sensitivity score (HepG2 [13]): 0 | drug sensitivity score (U2OS [14]): 0 | drug sensitivity score (Vero E6 [15]): 0.7

CC(C)C[C@H](NC(=O)[C@@H](O)[C@H](N)Cc1ccccc1)C(=O)O [ubenimex]
cell viability (Caco-2 [1]; 1 nM): 98.2% | cell viability (Caco-2 [1]; 10 nM): 108% | cell viability (Caco-2 [1]; 100 nM): 95.9% | cell viability (Caco-2 [1]; 1000 nM): 103% | cell viability (Caco-2 [1]; 10000 nM): 103% | cell viability (Calu-3 [2]; 1 nM): 103% | cell viability (Calu-3 [2]; 10 nM): 96% | cell viability (Calu-3 [2]; 100 nM): 104% | cell viability (Calu-3 [2]; 1000 nM): 105% | cell viability (Calu-3 [2]; 10000 nM): 104% | cell viability (HepG2 [3]; 1 nM): 105% | cell viability (HepG2 [3]; 10 nM): 93.4% | cell viability (HepG2 [3]; 100 nM): 111% | cell viability (HepG2 [3]; 1000 nM): 102% | cell viability (HepG2 [3]; 10000 nM): 95.4% | cell viability (U2OS [4]; 1 nM): 97% | cell viability (U2OS [4]; 10 nM): 105% | cell viability (U2OS [4]; 100 nM): 103% | cell viability (U2OS [4]; 1000 nM): 99.8% | cell viability (U2OS [4]; 10000 nM): 98.5% | cell viability (Vero E6 [5]; 1 nM): 101% | cell viability (Vero E6 [5]; 10 nM): 98.8% | cell viability (Vero E6 [5]; 100 nM): 102% | cell viability (Vero E6 [5]; 1000 nM): 98.7% | cell viability (Vero E6 [5]; 10000 nM): 101% | relative viability EC50 (Caco-2 [6]): > 10 µM | relative viability EC50 (Calu-3 [7]): > 10 µM | relative viability EC50 (HepG2 [8]): > 10 µM | relative viability EC50 (U2OS [9]): > 10 µM | relative viability EC50 (Vero E6 [10]): > 10 µM | drug sensitivity score (Caco-2 [11]): 0 | drug sensitivity score (Calu-3 [12]): 0 | drug sensitivity score (HepG2 [13]): 0 | drug sensitivity score (U2OS [14]): 0 | drug sensitivity score (Vero E6 [15]): 0

C[C@H](CCC(=O)O)[C@H]1CC[C@H]2[C@@H]3[C@@H](O)C[C@@H]4C[C@H](O)CC[C@]4(C)[C@H]3CC[C@]12C [ursodiol]
cell viability (Caco-2 [1]; 1 nM): 106 ± 2.8% | cell viability (Caco-2 [1]; 10 nM): 102 ± 3.9% | cell viability (Caco-2 [1]; 100 nM): 98.4 ± 0.14% | cell viability (Caco-2 [1]; 1000 nM): 94.9 ± 5.4% | cell viability (Caco-2 [1]; 10000 nM): 85.8 ± 15% | cell viability (Calu-3 [2]; 1 nM): 97% | cell viability (Calu-3 [2]; 10 nM): 96.6% | cell viability (Calu-3 [2]; 100 nM): 102% | cell viability (Calu-3 [2]; 1000 nM): 87.2% | cell viability (Calu-3 [2]; 10000 nM): 105% | cell viability (HepG2 [3]; 1 nM): 97.7 ± 6.4% | cell viability (HepG2 [3]; 10 nM): 107 ± 4.5% | cell viability (HepG2 [3]; 100 nM): 97.2 ± 8.1% | cell viability (HepG2 [3]; 1000 nM): 108 ± 7.4% | cell viability (HepG2 [3]; 10000 nM): 106 ± 4.2% | cell viability (U2OS [4]; 1 nM): 104% | cell viability (U2OS [4]; 10 nM): 94.3% | cell viability (U2OS [4]; 100 nM): 96.2% | cell viability (U2OS [4]; 1000 nM): 93.2% | cell viability (U2OS [4]; 10000 nM): 108% | cell viability (Vero E6 [5]; 1 nM): 97.3 ± 3.1% | cell viability (Vero E6 [5]; 10 nM): 101 ± 5.3% | cell viability (Vero E6 [5]; 100 nM): 100 ± 6.9% | cell viability (Vero E6 [5]; 1000 nM): 104 ± 2.4% | cell viability (Vero E6 [5]; 10000 nM): 103 ± 14% | relative viability EC50 (Caco-2 [6]): > 10 µM | relative viability EC50 (Calu-3 [7]): > 10 µM | relative viability EC50 (HepG2 [8]): > 10 µM | relative viability EC50 (U2OS [9]): > 10 µM | relative viability EC50 (Vero E6 [10]): > 10 µM | drug sensitivity score (Caco-2 [11]): 0.95 ± 1.3 | drug sensitivity score (Calu-3 [12]): 0 | drug sensitivity score (HepG2 [13]): 0 | drug sensitivity score (U2OS [14]): 0 | drug sensitivity score (Vero E6 [15]): 0

NS(=O)(=O)Cc1noc2ccccc12 [zonisamide]
cell viability (Caco-2 [1]; 1 nM): 84.9% | cell viability (Caco-2 [1]; 10 nM): 97.9% | cell viability (Caco-2 [1]; 100 nM): 96.1% | cell viability (Caco-2 [1]; 1000 nM): 96.3% | cell viability (Caco-2 [1]; 10000 nM): 106% | cell viability (Calu-3 [2]; 1 nM): 95.1% | cell viability (Calu-3 [2]; 10 nM): 97.9% | cell viability (Calu-3 [2]; 100 nM): 100% | cell viability (Calu-3 [2]; 1000 nM): 115% | cell viability (Calu-3 [2]; 10000 nM): 88.1% | cell viability (HepG2 [3]; 1 nM): 110% | cell viability (HepG2 [3]; 10 nM): 102% | cell viability (HepG2 [3]; 100 nM): 98.2% | cell viability (HepG2 [3]; 1000 nM): 94.5% | cell viability (HepG2 [3]; 10000 nM): 102% | cell viability (U2OS [4]; 1 nM): 94.1% | cell viability (U2OS [4]; 10 nM): 93.9% | cell viability (U2OS [4]; 100 nM): 92.4% | cell viability (U2OS [4]; 1000 nM): 98.4% | cell viability (U2OS [4]; 10000 nM): 102% | cell viability (Vero E6 [5]; 1 nM): 101% | cell viability (Vero E6 [5]; 10 nM): 93.3% | cell viability (Vero E6 [5]; 100 nM): 98.5% | cell viability (Vero E6 [5]; 1000 nM): 93.8% | cell viability (Vero E6 [5]; 10000 nM): 106% | relative viability EC50 (Caco-2 [6]): > 10 µM | relative viability EC50 (Calu-3 [7]): > 10 µM | relative viability EC50 (HepG2 [8]): > 10 µM | relative viability EC50 (U2OS [9]): > 10 µM | relative viability EC50 (Vero E6 [10]): > 10 µM | drug sensitivity score (Caco-2 [11]): 0 | drug sensitivity score (Calu-3 [12]): 0 | drug sensitivity score (HepG2 [13]): 0 | drug sensitivity score (U2OS [14]): 0 | drug sensitivity score (Vero E6 [15]): 0

Reference: the supplement of paper PMC13380429
